Test results published in paper PMC5515508, “Benzene Probes in Molecular Dynamics Simulations Reveal Novel Binding Sites for Ligand Design” (The Journal of Physical Chemistry Letters, 2016).
Bridge positions count the residues as written; N and C are the ends. Square brackets hold non-standard residues; d marks the D form. Peptide text beside a SMILES is read from it. R5 = C=CCCC[C@@](C)(N)C(=O)O

biological target: T1, MDM2 (1-125) (Homo sapiens, UniProt Q00987); experiment: Competitive fluorescence polarization titration against FAM-labeled 12/1 peptide; type: binding; details: read-out: Dissociation constant (Kd)
T1 construct: cleaved MDM2 (1-125) was purified to ~90% purity; GST (N, cleaved yes); made in house; host or cells: Escherichia coli BL21(DE3)
T1 sequence (Q00987 1-125): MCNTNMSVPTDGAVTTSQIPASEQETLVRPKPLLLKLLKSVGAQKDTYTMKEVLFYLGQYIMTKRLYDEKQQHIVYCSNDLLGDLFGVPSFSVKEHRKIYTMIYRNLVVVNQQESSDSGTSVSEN
Protocol: [P] is the protein concentration (MDM2), [L] is the labeled peptide concentration, r is the
Apparent Kd values were determined for a variety of molecules via competitive fluorescence […]
triplicate. Curve-fitting was carried out using Prism 4.0 (GraphPad).

`CC(=O)N[C@H](C(=O)N[C@@H](CO)C(=O)N[C@@H](Cc1ccccc1)C(=O)N[C@]1(C)CCCC=CCCC[C@](C)(C(=O)N[C@@H](CC(C)C)C(=O)N[C@@H](CC(C)C)C(=O)N[C@@H](CO)C(=O)N[C@@H](CCC(=O)O)C(=O)N[C@@H](CC(N)=O)C(=O)N[C@@H](Cc2ccc(O)cc2)C(N)=O)NC(=O)[C@H](Cc2c[nH]c3ccccc23)NC(=O)[C@H](Cc2ccc(O)cc2)NC(=O)[C@H](CCC(=O)O)NC1=O)[C@@H](C)O` [YS-6] (Ac-TSF[R5]EYW[R5]LLSENY-NH2; staple 4-8) and `CC(=O)N[C@H](C(=O)N[C@@H](CO)C(=O)N[C@@H](Cc1ccccc1)C(=O)N[C@]1(C)CCCC=CCCC[C@](C)(C(=O)N[C@@H](CC(C)C)C(=O)N[C@@H](CC(C)C)C(=O)N[C@@H](CO)C(=O)N[C@@H](CCC(=O)O)C(=O)N[C@@H](CC(N)=O)C(=O)N[C@@H](Cc2ccccc2)C(N)=O)NC(=O)[C@H](Cc2c[nH]c3ccccc23)NC(=O)[C@H](Cc2ccc(O)cc2)NC(=O)[C@H](CCC(=O)O)NC1=O)[C@@H](C)O` [YS-5] (Ac-TSF[R5]EYW[R5]LLSENF-NH2; staple 4-8) are within 1.5-fold of each other in Kd: 0.0088 ± 0.0006 µM for the first, 0.0116 ± 0.0009 µM for the second.

`CC(=O)N[C@H](C(=O)N[C@@H](CO)C(=O)N[C@@H](Cc1ccccc1)C(=O)N[C@]1(C)CCCC=CCCC[C@](C)(C(=O)N[C@@H](CC(C)C)C(=O)N[C@@H](CC(C)C)C(=O)N2CCC[C@H]2C(=O)N[C@@H](CCC(=O)O)C(=O)N[C@@H](CC(N)=O)C(=O)N[C@@H](Cc2ccccc2)C(N)=O)NC(=O)[C@H](Cc2c[nH]c3ccccc23)NC(=O)[C@H](Cc2ccc(O)cc2)NC(=O)[C@H](CCC(=O)O)NC1=O)[C@@H](C)O` [YS-1] (Ac-TSF[R5]EYW[R5]LLPENF-NH2; staple 4-8) and `CC(=O)N[C@H](C(=O)N[C@@H](CO)C(=O)N[C@@H](Cc1ccccc1)C(=O)N[C@]1(C)CCCC=CCCC[C@](C)(C(=O)N[C@@H](CC(C)C)C(=O)N[C@@H](CC(C)C)C(=O)N2CCC[C@H]2C(=O)N[C@@H](CCC(=O)O)C(=O)N[C@@H](CC(N)=O)C(=O)N[C@@H](Cc2ccc(O)cc2)C(N)=O)NC(=O)[C@H](Cc2c[nH]c3ccccc23)NC(=O)[C@H](Cc2ccc(O)cc2)NC(=O)[C@H](CCC(=O)O)NC1=O)[C@@H](C)O` [YS-2] (Ac-TSF[R5]EYW[R5]LLPENY-NH2; staple 4-8) are within error of each other in Kd: 0.0099 ± 0.0015 µM for the first, 0.0074 ± 0.0015 µM for the second.

`CC(=O)N[C@H](C(=O)N[C@@H](CO)C(=O)N[C@@H](Cc1ccccc1)C(=O)N[C@]1(C)CCCC=CCCC[C@](C)(C(=O)N[C@@H](CC(C)C)C(=O)N[C@@H](CC(C)C)C(=O)N2CCC[C@H]2C(=O)N[C@@H](CCC(=O)O)C(=O)N[C@@H](CC(N)=O)C(=O)N[C@@H](C)C(N)=O)NC(=O)[C@H](Cc2c[nH]c3ccccc23)NC(=O)[C@H](Cc2ccc(O)cc2)NC(=O)[C@H](CCC(=O)O)NC1=O)[C@@H](C)O` [YS-4] (Ac-TSF[R5]EYW[R5]LLPENA-NH2; staple 4-8) and `CC(=O)N[C@H](C(=O)N[C@@H](CO)C(=O)N[C@@H](Cc1ccccc1)C(=O)N[C@]1(C)CCCC=CCCC[C@](C)(C(=O)N[C@@H](CC(C)C)C(=O)N[C@@H](CC(C)C)C(=O)N2CCC[C@H]2C(=O)N[C@@H](CCC(=O)O)C(=O)N[C@@H](CC(N)=O)C(N)=O)NC(=O)[C@H](Cc2c[nH]c3ccccc23)NC(=O)[C@H](Cc2ccc(O)cc2)NC(=O)[C@H](CCC(=O)O)NC1=O)[C@@H](C)O` [YS-3] (Ac-TSF[R5]EYW[R5]LLPEN-NH2; staple 4-8) are within 1.5-fold of each other in Kd: 0.0277 ± 0.0013 µM for the first, 0.0361 ± 0.0029 µM for the second.
